How the values were obtained:
JAK-3 = target: T1, JAK-3 (Homo sapiens, UniProt P52333); test: JAK-3 inhibition assay; format: biochemical
T1 sequence (P52333 1-1124): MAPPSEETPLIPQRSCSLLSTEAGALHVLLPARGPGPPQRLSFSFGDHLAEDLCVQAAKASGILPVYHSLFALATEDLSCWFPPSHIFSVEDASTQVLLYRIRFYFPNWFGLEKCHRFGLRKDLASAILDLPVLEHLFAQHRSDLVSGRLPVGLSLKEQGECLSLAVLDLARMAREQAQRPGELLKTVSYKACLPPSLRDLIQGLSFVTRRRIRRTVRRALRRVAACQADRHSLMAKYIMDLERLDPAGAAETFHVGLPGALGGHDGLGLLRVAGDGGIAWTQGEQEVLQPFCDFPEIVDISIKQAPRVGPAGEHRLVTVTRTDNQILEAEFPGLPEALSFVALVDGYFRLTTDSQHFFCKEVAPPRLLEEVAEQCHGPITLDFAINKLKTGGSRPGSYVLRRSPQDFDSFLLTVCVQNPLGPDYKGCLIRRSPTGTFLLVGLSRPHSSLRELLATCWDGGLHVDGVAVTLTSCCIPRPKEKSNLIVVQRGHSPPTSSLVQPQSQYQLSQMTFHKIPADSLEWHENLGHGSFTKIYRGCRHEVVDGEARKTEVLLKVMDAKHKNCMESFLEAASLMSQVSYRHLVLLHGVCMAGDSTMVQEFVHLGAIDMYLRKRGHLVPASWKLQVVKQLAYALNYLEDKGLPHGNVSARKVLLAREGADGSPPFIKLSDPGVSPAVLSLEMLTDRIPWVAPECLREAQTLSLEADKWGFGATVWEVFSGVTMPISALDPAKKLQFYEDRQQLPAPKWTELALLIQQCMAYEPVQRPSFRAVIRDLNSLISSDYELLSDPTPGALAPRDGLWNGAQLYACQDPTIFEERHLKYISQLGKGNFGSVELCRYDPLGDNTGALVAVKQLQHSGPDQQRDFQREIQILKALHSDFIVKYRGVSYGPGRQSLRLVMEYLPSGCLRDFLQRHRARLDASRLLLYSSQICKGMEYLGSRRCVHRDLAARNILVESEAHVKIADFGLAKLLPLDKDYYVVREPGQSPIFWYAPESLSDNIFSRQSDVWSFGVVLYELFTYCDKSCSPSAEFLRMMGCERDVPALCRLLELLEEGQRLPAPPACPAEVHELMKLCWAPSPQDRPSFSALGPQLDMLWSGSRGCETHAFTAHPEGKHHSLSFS
Protocol: Compounds were screened for their ability to inhibit JAK using the assay shown below. Reactions were carried out in a kinase buffer containing 100 mM HEPES (pH 7.4), 1 mM DTT, 10 mM MgCl2, 25 mM NaCl, and 0.01% BSA.
Substrate concentrations in the assay were 5 μM ATP (200 μCi/μmole ATP) and 1 μM poly(Glu)4Tyr. Reactions were carried out at 25° C. and 1 nM JAK-3.
To each well of a 96 well polycarbonate plate was added 1.5 μL of a candidate JAK-3 inhibitor along with 50 μL of kinase buffer containing 2 μM poly(Glu)4Tyr and 10 μM ATP. This was then mixed and 50 μL of kinase buffer containing 2 nM JAK-3 enzyme was added to start the reaction. After 20 minutes at room temperature (25° C.), the reaction was stopped with 50 μL of 20% trichloroacetic acid (TCA) that also contained 0.4 mM ATP. The entire contents of each well were then transferred to a 96 well glass fiber filter plate using a TomTek Cell Harvester. After washing, 60 μL of scintillation fluid was added and ^33P incorporation detected on a Perkin Elmer TopCount. After removing the mean background values for all of the data points, the data were fit using Prism software to obtain a Ki value (app).

JAK-2 = JAK-2 (Homo sapiens, UniProt O60674); test: JAK-2 inhibition assay; format: biochemical
JAK-2, sequence (O60674 whole entry): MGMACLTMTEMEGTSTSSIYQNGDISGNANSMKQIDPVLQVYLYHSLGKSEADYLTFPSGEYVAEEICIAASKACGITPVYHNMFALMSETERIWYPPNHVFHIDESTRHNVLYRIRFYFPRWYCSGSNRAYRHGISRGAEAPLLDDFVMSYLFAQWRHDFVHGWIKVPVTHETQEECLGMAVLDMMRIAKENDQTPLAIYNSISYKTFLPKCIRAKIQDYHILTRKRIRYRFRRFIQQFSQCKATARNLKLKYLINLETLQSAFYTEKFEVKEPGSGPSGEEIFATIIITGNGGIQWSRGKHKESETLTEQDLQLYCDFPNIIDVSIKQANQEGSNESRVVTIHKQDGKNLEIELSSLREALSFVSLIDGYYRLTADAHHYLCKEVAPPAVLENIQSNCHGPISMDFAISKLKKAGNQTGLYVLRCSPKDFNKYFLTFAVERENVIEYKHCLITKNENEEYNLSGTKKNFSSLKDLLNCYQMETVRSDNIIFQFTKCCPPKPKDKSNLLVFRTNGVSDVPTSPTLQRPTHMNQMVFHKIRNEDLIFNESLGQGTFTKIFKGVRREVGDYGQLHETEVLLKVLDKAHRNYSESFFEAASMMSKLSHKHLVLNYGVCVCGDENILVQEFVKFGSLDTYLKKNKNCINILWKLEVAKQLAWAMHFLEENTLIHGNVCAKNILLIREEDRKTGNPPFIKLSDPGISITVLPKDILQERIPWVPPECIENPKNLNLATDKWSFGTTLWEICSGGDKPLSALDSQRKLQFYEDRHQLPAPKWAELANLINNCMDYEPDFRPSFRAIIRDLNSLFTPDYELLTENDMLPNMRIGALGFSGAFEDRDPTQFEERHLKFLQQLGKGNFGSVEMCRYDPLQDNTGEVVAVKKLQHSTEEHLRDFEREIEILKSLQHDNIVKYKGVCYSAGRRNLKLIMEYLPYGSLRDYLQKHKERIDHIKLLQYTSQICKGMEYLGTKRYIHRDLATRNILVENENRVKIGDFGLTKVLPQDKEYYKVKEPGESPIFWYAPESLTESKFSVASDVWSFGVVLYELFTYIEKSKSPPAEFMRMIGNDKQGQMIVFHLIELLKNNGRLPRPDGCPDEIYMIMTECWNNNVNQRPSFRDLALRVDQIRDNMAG

Row | Compound | Ki (JAK-3) [µM] | Ki (JAK-2) [µM]
1 | O=C1NC(c2ccc(Br)cc2)c2c[nH]c3nccc(c23)-c2ccccc21 (stereo not shown) [Compound 152] | > 2.5 | > 2.5
2 | FC(F)(F)C1Nc2ccccc2-c2ncnc3[nH]cc1c23 (stereo not shown) [Compound 4] | > 2.5 | > 2.5
3 | CS(=O)(=O)c1ccc(C2Nc3ccccc3-c3ccnc4[nH]cc2c34)cc1 (stereo not shown) [Compound 121] | > 2.5 | > 2.5
4 | CC(C)(C)c1cc(C2Nc3ccccc3-c3ccnc4[nH]cc2c34)cc(C(C)(C)C)c1O (stereo not shown) [Compound 108] | > 2.5 | > 2.5
5 | Cc1cc(C2Nc3ccccc3-c3ccnc4[nH]cc2c34)ccc1F (stereo not shown) [Compound 138] | > 2.5 | > 2.5
6 | CCOc1cc(C2Nc3ccccc3-c3ccnc4[nH]cc2c34)ccc1O (stereo not shown) [Compound 148] | 0.25 to 2.5 | 0.25 to 2.5
7 | Cc1cc(C2Nc3ccccc3-c3ccnc4[nH]cc2c34)cc(C)c1O (stereo not shown) [Compound 79] | 0.25 to 2.5 | 0.25 to 2.5
8 | OCCCCC1=Nc2ccccc2-c2ccnc3[nH]cc1c23 [Compound 58] | 0.25 to 2.5 | 0.25 to 2.5
9 | c1ccc(C2Nc3ccccc3-c3ncnc4[nH]cc2c34)cc1 (stereo not shown) [Compound 3] | 0.25 to 2.5 | > 2.5
10 | CC(C)CC1Nc2ccccc2-c2ccnc3[nH]cc1c23 (stereo not shown) [Compound 15] | > 2.5 | 
11 | C1=Nc2ccccc2-c2ccnc3[nH]cc1c23 [Compound 109] | 0.25 to 2.5 | 0.25 to 2.5
12 | Oc1ccc(C2Nc3ccccc3-c3ccnc4[nH]cc2c34)cc1C(F)(F)F (stereo not shown) [Compound 104] | 0.25 to 2.5 | 0.25 to 2.5
13 | c1ccc(COCC2Nc3ccccc3-c3ccnc4[nH]cc2c34)cc1 (stereo not shown) [Compound 1] | 0.25 to 2.5 | 
14 | [O-][n+]1ccc(C2Nc3ccccc3-c3ccnc4[nH]cc2c34)cc1 (stereo not shown) [Compound 122] | > 2.5 | > 2.5
15 | Fc1ccc(C2Nc3ccccc3-c3ccnc4[nH]cc2c34)c(Cl)c1 (stereo not shown) [Compound 32] | > 2.5 | 0.25 to 2.5
16 | Cc1ccc(C2Nc3ccccc3-c3ccnc4[nH]cc2c34)cc1 (stereo not shown) [Compound 137] | > 2.5 | 0.25 to 2.5
17 | Fc1ccc(C2Nc3ccccc3-c3ccnc4[nH]cc2c34)c(F)c1F (stereo not shown) [Compound 29] | 0.25 to 2.5 | 
18 | c1ccc2c(c1)NC(c1ccc3c(c1)OCO3)c1c[nH]c3nccc-2c13 (stereo not shown) [Compound 22] | 0.25 to 2.5 | < 0.25
19 | O=C(O)C1Nc2ccccc2-c2ccnc3[nH]cc1c23 (stereo not shown) [Compound 23] | 0.25 to 2.5 | 0.25 to 2.5

Row | Compound | Ki (JAK-3) [µM] | Ki (JAK-2) [µM]
20 | Oc1ccc(O)c(C2Nc3ccccc3-c3ccnc4[nH]cc2c34)c1 (stereo not shown) [Compound 72] | 0.25 to 2.5 | > 2.5
21 | Clc1ccccc1C1Nc2ccccc2-c2ccnc3[nH]cc1c23 (stereo not shown) [Compound 17] | 0.25 to 2.5 | 0.25 to 2.5
22 | O=[N+]([O-])c1ccc(C2Nc3ccccc3-c3ccnc4[nH]cc2c34)cc1 (stereo not shown) [Compound 86] | > 2.5 | > 2.5
23 | COC(=O)c1cc(C2Nc3ccccc3-c3ccnc4[nH]cc2c34)ccc1O (stereo not shown) [Compound 111] | > 2.5 | > 2.5
24 | COC(=O)CC1Nc2ccccc2-c2ccnc3[nH]cc1c23 (stereo not shown) [Compound 156] | 0.25 to 2.5 | 
25 | Oc1ccc(C2Nc3ccccc3-c3ccnc4[nH]cc2c34)cc1OC(F)(F)F (stereo not shown) [Compound 114] | 0.25 to 2.5 | 0.25 to 2.5
26 | Fc1cccc(C2Nc3ccccc3-c3ccnc4[nH]cc2c34)c1 (stereo not shown) [Compound 11] | 0.25 to 2.5 | < 0.25
27 | Fc1ccc(F)c(C2Nc3ccccc3-c3c(Cl)cnc4[nH]cc2c34)c1F (stereo not shown) [Compound 54] | 0.25 to 2.5 | < 0.25
28 | O=C(O)c1ccc(C2Nc3ccccc3-c3ccnc4[nH]cc2c34)cc1 (stereo not shown) [Compound 88] | > 2.5 | 
29 | c1ccc(CC2Nc3ccccc3-c3ccnc4[nH]cc2c34)cc1 (stereo not shown) [Compound 24] | 0.25 to 2.5 | 
30 | CS(=O)(=O)Nc1ccc(C2Nc3ccccc3-c3ccnc4[nH]cc2c34)cc1 (stereo not shown) [Compound 123] | > 2.5 | 
31 | CCC1Nc2ccccc2-c2ccnc3[nH]cc1c23 (stereo not shown) [Compound 14] | 0.25 to 2.5 | 
32 | CC(C)C1Nc2ccccc2-c2ccnc3[nH]cc1c23 (stereo not shown) [Compound 16] | > 2.5 | 
33 | c1ccc(C2Nc3ccccc3-c3ccnc4[nH]cc2c34)cc1 (stereo not shown) [Compound 5] | 0.25 to 2.5 | 
34 | CC(C)(C)C1Nc2ccccc2-c2ccnc3[nH]cc1c23 (stereo not shown) [Compound 6] | 0.25 to 2.5 | 
35 | OCCCCC1Nc2ccccc2-c2ccnc3[nH]cc1c23 (stereo not shown) [Compound 59] | > 2.5 | 
36 | c1ccc2c(c1)NC(C1CCCCC1)c1c[nH]c3nccc-2c13 (stereo not shown) [Compound 10] | > 2.5 | 
37 | CNC(=O)c1ccc(C2Nc3ccccc3-c3ccnc4[nH]cc2c34)cc1 (stereo not shown) [Compound 91] | > 2.5 | 

Results, then the molecule that gave them:

Row | Ki (JAK-3) [µM] | Ki (JAK-2) [µM] | Compound
38 | ≤ 0.25 | < 0.25 | Oc1ccc(C2Nc3ccccc3-c3ccnc4[nH]cc2c34)cc1O (stereo not shown) [Compound 66]
39 | ≤ 0.25 | < 0.25 | Fc1ccc(F)c(C2Nc3ccccc3-c3ccnc4[nH]cc2c34)c1F (stereo not shown) [Compound 30]
40 | 0.25 to 2.5 | 0.25 to 2.5 | c1ccc2c(c1)NC(C1CCNCC1)c1c[nH]c3nccc-2c13 (stereo not shown) [Compound 90]
41 | 0.25 to 2.5 |  | COC(=O)C1(c2ccc([N+](=O)[O-])cc2)Nc2ccccc2-c2ccnc3[nH]cc1c23 (stereo not shown) [Compound 98]
42 | ≤ 0.25 |  | COC(=O)C1(c2ccc(O)cc2)Nc2ccccc2-c2ccnc3[nH]cc1c23 (stereo not shown) [Compound 103]
43 | 0.25 to 2.5 | 0.25 to 2.5 | Brc1ccccc1C1Nc2ccccc2-c2ccnc3[nH]cc1c23 (stereo not shown) [Compound 21]
44 | 0.25 to 2.5 | < 0.25 | Cn1cc2c3c(ccnc31)-c1cccnc1NC2c1ccc(O)cc1 (stereo not shown) [Compound 96]
45 | 0.25 to 2.5 | 0.25 to 2.5 | c1ccc2c(c1)NC(c1ccc(-n3ccnc3)cc1)c1c[nH]c3nccc-2c13 (stereo not shown) [Compound 119]
46 | ≤ 0.25 |  | Oc1ccc(C2Nc3ccccc3-c3ccnc4[nH]cc2c34)cc1 (stereo not shown) [Compound 65]
47 | 0.25 to 2.5 | < 0.25 | Fc1cccc(F)c1C1Nc2ccccc2-c2ncnc3[nH]cc1c23 (stereo not shown) [Compound 49]
48 | ≤ 0.25 |  | Oc1ccc(C2Nc3ccccc3-c3ncnc4[nH]cc2c34)cc1F (stereo not shown) [Compound 116]
49 | ≤ 0.25 | < 0.25 | Oc1ccc(C2Nc3ncccc3-c3ccnc4[nH]cc2c34)cc1 (stereo not shown) [Compound 97]
50 | 0.25 to 2.5 | < 0.25 | COc1ccc(C2Nc3ccccc3-c3ccnc4[nH]cc2c34)c(Cl)c1O (stereo not shown) [Compound 70]
51 | ≤ 0.25 | < 0.25 | COc1cc(C2Nc3ccccc3-c3ccnc4[nH]cc2c34)cc(F)c1O (stereo not shown) [Compound 68]
52 | ≤ 0.25 | < 0.25 | COc1cc(C2Nc3ccccc3-c3ccnc4[nH]cc2c34)cc(Cl)c1O (stereo not shown) [Compound 112]
53 | ≤ 0.25 | < 0.25 | Cn1cc2c3c(ccnc31)-c1cccnc1NC2c1ccc(O)c(Cl)c1 (stereo not shown) [Compound 95]
54 | ≤ 0.25 | < 0.25 | N#CCC1Nc2ccccc2-c2ccnc3[nH]cc1c23 (stereo not shown) [Compound 155]
55 | ≤ 0.25 | < 0.25 | Oc1ccc(C2Nc3ccccc3-c3ccnc4[nH]cc2c34)cc1Cl (stereo not shown) [Compound 74]
56 | ≤ 0.25 | < 0.25 | Oc1ccc(C2Nc3ccccc3-c3c(Cl)cnc4[nH]cc2c34)c(Cl)c1 (stereo not shown) [Compound 53]
57 | ≤ 0.25 |  | O=C1Nc2ccccc2-c2ccnc3[nH]cc(c23)C1c1ccc(O)cc1 (stereo not shown) [Compound 125]
58 | ≤ 0.25 |  | Oc1ccc(C2Nc3ccccc3-c3ncnc4[nH]cc2c34)c(F)c1 (stereo not shown) [Compound 118]
59 | ≤ 0.25 |  | Oc1ccc(C2Nc3ccccc3-c3ccnc4[nH]cc2c34)cc1F (stereo not shown) [Compound 105]
60 | ≤ 0.25 |  | Oc1ccc(C2Nc3ccccc3-c3ccnc4[nH]cc2c34)cc1Br (stereo not shown) [Compound 77]
61 | ≤ 0.25 |  | Oc1ccc(C2Nc3ccccc3-c3ccnc4[nH]cc2c34)c(F)c1 (stereo not shown) [Compound 107]
62 | ≤ 0.25 |  | OCc1ccc(C2Nc3ccccc3-c3ccnc4[nH]cc2c34)cc1 (stereo not shown) [Compound 154]
